Target: T1, human neprilysin (EC 3.4.24.11; NEP) (Homo sapiens, UniProt P08473)
T1 construct: purchased R&D Systems, Minneapolis, MN 1182-ZN
Assay: In vitro enzyme inhibition assay at human NEP (fluorogenic peptide substrate)
Assay type: biochemical
Settings: recombinant human NEP; fluorogenic substrate Mca-D-Arg-Arg-Leu-Dap-(Dnp)-OH; 37° C., pH 7.5; read-out: pKi value at human NEP (converted)
Method: The inhibitory activities of compounds at human and rat neprilysin (EC 3.4.24.11; NEP) and human angiotensin converting enzyme (ACE) were determined using in vitro assays as described below.
Recombinant human NEP and recombinant human ACE were obtained commercially (R&D Systems, Minneapolis, MN, catalog numbers 1182-ZN and 929-ZN, respectively). The fluorogenic peptide substrate Mca-D-Arg-Arg-Leu-Dap-(Dnp)-OH (Medeiros et al. (1997) Braz. J. Med. Biol. Res. 30:1157-62; Anaspec, San Jose, Calif.) and Abz-Phe-Arg-Lys(Dnp)-Pro-OH (Araujo et al. (2000) Biochemistry 39:8519-8525; Bachem, Torrance, Calif.) were used in the NEP and ACE assays respectively.
The assays were performed in 384-well white opaque plates at 37° C. using the fluorogenic peptide substrates at a concentration of 10 µM in Assay Buffer (NEP: 50 mM HEPES, pH 7.5, 100 mM NaCl, 0.01% polyethylene glycol sorbitan monolaurate (Tween-20), 10 μM ZnSO4; ACE: 50 mM HEPES, pH 7.5, 100 mM NaCl, 0.01% Tween-20, 1 μM ZnSO4).
Test compounds were assayed over the range of concentrations from […] to 20 μM. Test compounds were added to the enzymes and incubated for 30 minute at 37° C. prior to initiating the reaction by the addition of substrate. […]
Plates were read on a fluorometer with excitation and emission wavelengths set to 320 nm and 405 nm, respectively. […]

T1 sequence (P08473 52-750 limits assumed): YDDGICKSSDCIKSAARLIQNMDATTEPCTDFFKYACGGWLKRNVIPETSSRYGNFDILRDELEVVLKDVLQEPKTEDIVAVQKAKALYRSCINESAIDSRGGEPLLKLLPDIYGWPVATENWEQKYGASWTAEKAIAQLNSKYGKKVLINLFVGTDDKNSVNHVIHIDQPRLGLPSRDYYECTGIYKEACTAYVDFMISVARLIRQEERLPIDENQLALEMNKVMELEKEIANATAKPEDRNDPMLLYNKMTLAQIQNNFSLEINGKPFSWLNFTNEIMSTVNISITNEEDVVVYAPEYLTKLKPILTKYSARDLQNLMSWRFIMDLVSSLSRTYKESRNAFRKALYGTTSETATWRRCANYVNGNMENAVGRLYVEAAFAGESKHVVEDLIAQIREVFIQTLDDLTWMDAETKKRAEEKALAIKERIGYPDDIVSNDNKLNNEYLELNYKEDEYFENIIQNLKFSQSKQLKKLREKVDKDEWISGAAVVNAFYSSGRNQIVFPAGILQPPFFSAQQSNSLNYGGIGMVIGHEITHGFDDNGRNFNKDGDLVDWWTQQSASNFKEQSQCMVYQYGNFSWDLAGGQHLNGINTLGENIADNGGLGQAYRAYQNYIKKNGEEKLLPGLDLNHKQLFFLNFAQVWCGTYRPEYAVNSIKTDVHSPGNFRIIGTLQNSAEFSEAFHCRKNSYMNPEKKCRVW

**Q.** How did the Ki turn out when `CC(=O)c1cc(C(=O)NN(Cc2ccc(-c3cc(Cl)ccc3F)cc2)C[C@@H](O)C(=O)O)[nH]n1` [Example 6A, (R)-3-[N′-(5-Acetyl-2H-pyrazole-3-carbonyl)-N-(5′-chloro-2′-fluorobiphenyl-4-ylmethyl)hydrazino]-2-hydroxypropionic Acid] was run?
**A.** ≤ 1 nM

From patent publication US9981999B2, “Neprilysin inhibitors” (THERAVANCE BIOPHARMA R&D IP, LLC, priority 2012, dated 2018)
